Marks after values point to notes of the source that are not given here.
How the values were obtained:
[1] = high-dose dexamethasone pretreatment, female rat; cited from earlier work
[2] = Phase I trial combining PLD and trabectedin: pharmacokinetics of trabectedin; format: in vivo, human; settings: for AUC∞ / Cl / Cmax / T1/2: mean; for Impact of concomitant PLD on the pharmacokinetics of trabectedin: preliminary analysis, versus historical control data of trabectedin alone
Procedure: (§1) A phase I trial combining PLD and trabectedin was performed. The objective of this study was to determine the maximum tolerated dose (MTD) of trabectidin in combination with PLD 30 mg/m^2 administered every 21 clays. Additional objectives were to evaluate the safety profile of this combination of drugs and to evaluate the pharmacokinetics of trabectidin and PDL when given in combination. The maximum tolerated dose (MTD) relates to the highest dose at which less than one third of the subjects in a dose-level cohort experienced dose-limiting toxicity (DLT).
(§2) We designed a dose finding trial with a fixed PLD dose of 30 mg/m^2 administered intravenously over one hour, followed immediately by one of six trabectedin doses (0.4, 0.6, 0.75, 0.9, 1.1, and 1.3 mg/m^2) administered intravenously over 3 hours. This treatment was repeated every 21 days.
Based on preliminary pharmacokinetic analysis, the values of trabectedin CL (systematic clearance after i.v. dose), t½ (half life) and Vss (apparent volume of distribution at steady state) are within the range observed when trabectedin is given alone (historical control data) (FIG. 1, Table 9),

[3] = test system: sarcoma and breast and ovarian carcinoma; settings: phase I, ET-743 alone; cited from earlier work
[4] = increase in plasma liver enzymes, cholangitis; cited from earlier work
[5] = Phase I trial combining PLD and trabectedin: MTD, safety, drug-related adverse events; format: in vivo, human
Procedure: as §1, §2
Entry-criteria included normal liver function tests, limited prior, doxorubicin-exposure (dose less than 250 mg/m^2), normal cardiac function and Eastern Cooperative Oncology Group (ECOG) Performance Status (PS) score of 0 or 1.
Worst on-treatment drug related grade 3 and 4 toxicities have been minimal, limited to neutropenia and transaminases elevation. Tables 5a and 5b show the frequently reported drug-related Grade ¾ adverse events in least 5% of subjects. The adverse events reported at any time from first treatment dose up to 30 days after the last treatment dose are included. In order to define the toxicity grade, NCI common criteria are used.
In addition, Tables 6a and 6b show the drug-related serious adverse events reported.
Out of 18 subjects that discontinued treatment only one subject terminated treatment due to drug related adverse event (Tables 7a and 7b).

[6] = Phase I dose escalation study of Doxorubicin (60 mg/m^2) in combination with ET-743; format: in vivo, human; settings: in combination with Doxorubicin 60 mg/m^2, ET-743 over 3 hours
Procedure: The following figures indicate that the use of PLD in combination with ET-743, allows an escalated dose of ET-743 to be tolerated, in comparison to when Doxorubicin is used. A phase I dose escalation study of Doxorubicin (60 mg/m^2) in combination with ET-743, administered over 3 hours, could only support a ET-743 dose of 0.7 mg/m^2. In a Phase I dose escalation study of 30 mg/m^2 PLD in combination with ET-743 administered over 3 hours, ET-743 could be escalated to 1.1 mg/m^2.

cancer = test: Phase I trial combining PLD and trabectedin: best overall response; format: in vivo, human; settings: for Best Overall Response: SD (patients, tumour type): stable disease > 3 months
Procedure: as §1, §2
Thirty patients, 14 with sarcomas, 2 with ovarian cancer, 2 with pancreatic cancer, 2 with head and neck carcinoma, 1 with bladder cancer, 1 with breast cancer, 1 with gastric cancer, 1 with NSCLC, 1 with SCLC and 5 more with other types of cancers have been treated (Table 1).
Fourteen (14) additional patients (five with sarcoma, and one each carcinoid tumor, pancreatic, bladder, head and neck, thyroid, breast, gastric, SCLC and ovarian cancer) have had stable disease for > 3 months (Table 8a and 8b).

human tumour xenografts = settings: xenografts including melanoma and ovarian and breast carcinoma; cited from earlier work
[7] = patients, infusion over 24-72 hr; cited from earlier work
[8] = ET-743 0.9 mg/m^2 3 hours infusion after PLD 30 mg/m^2 1 hour infusion, N 3
[9] = ET-743 1.1 mg/m^2 3 hours infusion after PLD 30 mg/m^2 1 hour infusion, N 3
[10] = ET-743 1.3 mg/m^2 3 hours infusion after PLD 30 mg/m^2 1 hour infusion, N 2
[11] = ET743 0.4 mg/m^2 + PLD 30 mg/m^2, N = 3
[12] = ET743 0.6 mg/m^2 + PLD 30 mg/m^2, N = 3
[13] = ET743 0.75 mg/m^2 + PLD 30 mg/m^2, N = 3
[14] = ET743 0.9 mg/m^2 + PLD 30 mg/m^2, N = 3
[15] = ET743 1.1 mg/m^2 + PLD 30 mg/m^2, N = 12
[16] = ET743 1.3 mg/m^2 + PLD 30 mg/m^2, N = 6
[17] = Total, all ET743 dose levels + PLD 30 mg/m^2, N = 30

C[C@@H]1C[C@H]2[C@@H]3CCC4=CC(=O)C=C[C@]4(C)[C@@]3(F)[C@@H](O)C[C@]2(C)[C@@]1(O)C(=O)CO [dexamethasone]
effect of pretreatment on ET-743 hepatotoxicity [1]: abrogate ET-743-mediated hepatotoxicity

COc1cc2c(cc1O)CCN[C@]21CS[C@@H]2c3c(OC(C)=O)c(C)c4c(c3[C@H](COC1=O)N1[C@@H]2[C@H]2c3c(cc(C)c(OC)c3O)C[C@@H]([C@@H]1O)N2C)OCO4 [ET743, Ecteinascidin 743]
AUC∞ [2, 8]: 39 ng·h/mL
Cl [2, 8]: 23 l/h/m2
Cmax [2, 8]: 6 ng/mL
T1/2 [2, 8]: 93 h
AUC∞ [2, 9]: 42 ng·h/mL
Cl [2, 9]: 26 l/h/m2
Cmax [2, 9]: 6 ng/mL
T1/2 [2, 9]: 65 h
AUC∞ [2, 10]: 31 ng·h/mL
Cl [2, 10]: 44 l/h/m2
Cmax [2, 10]: 7 ng/mL
T1/2 [2, 10]: 47 h
Impact of concomitant PLD on the pharmacokinetics of trabectedin [2]: does not have an impact
Impact of concomitant PLD on the pharmacokinetics of trabectedin ([2]; listed as trabectidin): overtly not impacted
clinical responses [3]: promising responses were observed
acute toxicity finding [4]: liver toxicity as an important side effect
Drug related serious adverse events, subjects: Nausea/Vomiting [5, 11]: 0
Grade 3/4 drug-related AE, subjects: Allergic Reaction [5, 11]: 0
Grade 3/4 drug-related AE, subjects: Liver and Biliary System [5, 11]: 0
Grade 3/4 drug-related AE, subjects: Nausea [5, 11]: 0
Grade 3/4 drug-related AE, subjects: Other [5, 11]: 0
Grade 3/4 drug-related AE, subjects: Palmar-Plantar Erythrodysesthesia [5, 11]: 0
Grade 3/4 drug-related AE, subjects: SGOT Increased [5, 11]: 0
Grade 3/4 drug-related AE, subjects: SGPT Increased [5, 11]: 0
Total no. subjects with Grade 3/4 drug-related AE [5, 11]: 0
Total no. subjects with SAE (drug related serious adverse events) [5, 11]: 0
Treatment termination, subjects: Death [5, 11]: 0
Treatment termination, subjects: Drug-Related AE (hand-foot syndrome) [5, 11]: 0
Drug related serious adverse events, subjects: Nausea/Vomiting [5, 12]: 0
Grade 3/4 drug-related AE, subjects: Allergic Reaction [5, 12]: 0
Grade 3/4 drug-related AE, subjects: Liver and Biliary System [5, 12]: 0
Grade 3/4 drug-related AE, subjects: Nausea [5, 12]: 1
Grade 3/4 drug-related AE, subjects: Other [5, 12]: 1
Grade 3/4 drug-related AE, subjects: Palmar-Plantar Erythrodysesthesia [5, 12]: 0
Grade 3/4 drug-related AE, subjects: SGOT Increased [5, 12]: 0
Grade 3/4 drug-related AE, subjects: SGPT Increased [5, 12]: 0
Total no. subjects with Grade 3/4 drug-related AE [5, 12]: 1
Total no. subjects with SAE (drug related serious adverse events) [5, 12]: 0
Treatment termination, subjects: Death [5, 12]: 0
Treatment termination, subjects: Drug-Related AE (hand-foot syndrome) [5, 12]: 0
Drug related serious adverse events, subjects: Nausea/Vomiting [5, 13]: 0
Grade 3/4 drug-related AE, subjects: Allergic Reaction [5, 13]: 0
Grade 3/4 drug-related AE, subjects: Liver and Biliary System [5, 13]: 0
Grade 3/4 drug-related AE, subjects: Nausea [5, 13]: 0
Grade 3/4 drug-related AE, subjects: Other [5, 13]: 0
Grade 3/4 drug-related AE, subjects: Palmar-Plantar Erythrodysesthesia [5, 13]: 0
Grade 3/4 drug-related AE, subjects: SGOT Increased [5, 13]: 0
Grade 3/4 drug-related AE, subjects: SGPT Increased [5, 13]: 0
Total no. subjects with Grade 3/4 drug-related AE [5, 13]: 0
Total no. subjects with SAE (drug related serious adverse events) [5, 13]: 0
Treatment termination, subjects: Death [5, 13]: 0
Treatment termination, subjects: Drug-Related AE (hand-foot syndrome) [5, 13]: 0
Drug related serious adverse events, subjects: Nausea/Vomiting [5, 14]: 0
Grade 3/4 drug-related AE, subjects: Allergic Reaction [5, 14]: 0
Grade 3/4 drug-related AE, subjects: Liver and Biliary System [5, 14]: 0
Grade 3/4 drug-related AE, subjects: Nausea [5, 14]: 0
Grade 3/4 drug-related AE, subjects: Other [5, 14]: 0
Grade 3/4 drug-related AE, subjects: Palmar-Plantar Erythrodysesthesia [5, 14]: 0
Grade 3/4 drug-related AE, subjects: SGOT Increased [5, 14]: 0
Grade 3/4 drug-related AE, subjects: SGPT Increased [5, 14]: 0
Total no. subjects with Grade 3/4 drug-related AE [5, 14]: 0
Total no. subjects with SAE (drug related serious adverse events) [5, 14]: 0
Treatment termination, subjects: Death [5, 14]: 0
Treatment termination, subjects: Drug-Related AE (hand-foot syndrome) [5, 14]: 0
Drug related serious adverse events, subjects: Nausea/Vomiting [5, 15]: 1
Grade 3/4 drug-related AE, subjects: Allergic Reaction [5, 15]: 2
Grade 3/4 drug-related AE, subjects: Liver and Biliary System [5, 15]: 6
Grade 3/4 drug-related AE, subjects: Nausea [5, 15]: 1
Grade 3/4 drug-related AE, subjects: Other [5, 15]: 4
Grade 3/4 drug-related AE, subjects: Palmar-Plantar Erythrodysesthesia [5, 15]: 2
Grade 3/4 drug-related AE, subjects: SGOT Increased [5, 15]: 1
Grade 3/4 drug-related AE, subjects: SGPT Increased [5, 15]: 6
Total no. subjects with Grade 3/4 drug-related AE [5, 15]: 10
Total no. subjects with SAE (drug related serious adverse events) [5, 15]: 1
Treatment termination, subjects: Death [5, 15]: 0
Treatment termination, subjects: Drug-Related AE (hand-foot syndrome) [5, 15]: 1
Drug related serious adverse events, subjects: Nausea/Vomiting [5, 16]: 0
Grade 3/4 drug-related AE, subjects: Allergic Reaction [5, 16]: 0
Grade 3/4 drug-related AE, subjects: Liver and Biliary System [5, 16]: 3
Grade 3/4 drug-related AE, subjects: Nausea [5, 16]: 0
Grade 3/4 drug-related AE, subjects: Other [5, 16]: 2
Grade 3/4 drug-related AE, subjects: Palmar-Plantar Erythrodysesthesia [5, 16]: 2
Grade 3/4 drug-related AE, subjects: SGOT Increased [5, 16]: 2*
Grade 3/4 drug-related AE, subjects: SGPT Increased [5, 16]: 3*
Total no. subjects with Grade 3/4 drug-related AE [5, 16]: 6
Total no. subjects with SAE (drug related serious adverse events) [5, 16]: 0
Treatment termination, subjects: Death [5, 16]: 1
Treatment termination, subjects: Drug-Related AE (hand-foot syndrome) [5, 16]: 0
Grade 3/4 drug-related AE, subjects: Allergic Reaction [5, 17]: 2
Grade 3/4 drug-related AE, subjects: Liver and Biliary System [5, 17]: 9
Grade 3/4 drug-related AE, subjects: Nausea [5, 17]: 2
Grade 3/4 drug-related AE, subjects: Other [5, 17]: 7
Grade 3/4 drug-related AE, subjects: Palmar-Plantar Erythrodysesthesia [5, 17]: 4
Grade 3/4 drug-related AE, subjects: SGOT Increased [5, 17]: 3
Grade 3/4 drug-related AE, subjects: SGPT Increased [5, 17]: 9
Total no. subjects with Grade 3/4 drug-related AE [5, 17]: 17
Total no. subjects with SAE (drug related serious adverse events) [5, 17]: 1
Treatment termination, subjects: Death [5, 17]: 1
Treatment termination, subjects: Drug-Related AE (hand-foot syndrome) [5, 17]: 1
Tolerability of the combination ([5]; both drugs at full (or near full) therapeutic doses for prolonged periods): well tolerated
ET-743 dose reached in dose escalation ([5]; in combination with 30 mg/m^2 PLD, ET-743 over 3 hours): 1.1 mg/m^2
maximum tolerated dose (MTD) ([5]; in combination with PLD 30 mg/m^2, every 21 days, ET-743 i.v. over 3 hours): 1.1 mg/m^2
recommended dose of the combination treatment ([5]; plus 30 mg/m^2 of PLD): 1.1 mg/m^2
ET-743 dose that could be supported in dose escalation [6]: 0.7 mg/m^2
Best Overall Response: PR (patients, tumour type) (cancer; [11]): 1 Sarcoma
Treatment termination, subjects: Disease Progression (cancer; [11]): 2
Best Overall Response: PR (patients, tumour type) (cancer; [12]): 0
Treatment termination, subjects: Disease Progression (cancer; [12]): 1
Best Overall Response: PR (patients, tumour type) (cancer; [13]): 0
Treatment termination, subjects: Disease Progression (cancer; [13]): 2
Best Overall Response: SD (patients, tumour type) (cancer; [13]): 1 Thyroid
Best Overall Response: PR (patients, tumour type) (cancer; [14]): 0
Treatment termination, subjects: Disease Progression (cancer; [14]): 3
Best Overall Response: SD (patients, tumour type) (cancer; [14]): 0
Best Overall Response: PR (patients, tumour type) (cancer; [15]): 1 Sarcoma
Treatment termination, subjects: Disease Progression (cancer; [15]): 5
Treatment termination, subjects: Disease Progression (cancer; [16]): 2
Clinical benefit (measurable responses) (cancer; ET-743 together with PLD, soft tissue sarcoma, ovarian and head and neck cancer): measurable responses demonstrated evidence of clinical benefit
Treatment termination, subjects: Disease Progression (cancer; [17]): 15
antineoplastic activity (human tumour xenografts): potent antineoplastic activity
side effects [7]: myelotoxic and hepatotoxic side effects

— patent publication US20090117176A1, “Anticancer Treatments” (Pharma Mar, S.A. Sociedad Unipersonal, priority 2004, published 2009)
